Here are results for 32 compounds from ChEMBL document CHEMBL3992533, “α-Ketothioamide Derivatives: A Promising Tool to Interrogate Phosphoglycerate Dehydrogenase (PHGDH)” (J Med Chem, 2017).

The structures appear in SMILES notation. pIC50, pKi: −log10 of the molar value. Activity calls are given as the source filed them. The calls are words filed in the database; no cut-off is given here.

For experiment [1], the target named is T1, D-3-phosphoglycerate dehydrogenase (Homo sapiens, UniProt O43175).
T1 sequence (O43175 whole entry): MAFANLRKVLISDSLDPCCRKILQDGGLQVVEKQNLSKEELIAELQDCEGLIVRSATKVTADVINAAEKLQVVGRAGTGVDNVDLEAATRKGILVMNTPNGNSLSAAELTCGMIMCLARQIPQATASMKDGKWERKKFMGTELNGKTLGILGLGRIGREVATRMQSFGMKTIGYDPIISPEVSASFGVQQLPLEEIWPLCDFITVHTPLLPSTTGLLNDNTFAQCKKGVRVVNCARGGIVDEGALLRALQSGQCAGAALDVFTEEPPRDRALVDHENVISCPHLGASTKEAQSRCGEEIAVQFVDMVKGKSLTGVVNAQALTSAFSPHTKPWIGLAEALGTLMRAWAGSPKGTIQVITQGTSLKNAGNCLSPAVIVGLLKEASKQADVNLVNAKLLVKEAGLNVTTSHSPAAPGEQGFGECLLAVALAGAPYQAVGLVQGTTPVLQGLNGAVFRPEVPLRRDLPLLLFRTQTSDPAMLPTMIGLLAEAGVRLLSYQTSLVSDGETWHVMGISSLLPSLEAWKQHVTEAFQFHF
Put plainly: Inhibition of recombinant human C-terminal His-tagged PHGDH (1 to 533 residues) expressed in Escherichia coli assessed as reduction in NADH formation using 3-phosphoglycerate as substrate in presence of NAD+ by resorufin fluorescence based PSAT1/diaphorase/PSPH coupled enzyme assay.

A further experiment has as its system MDA-MB-231. Put plainly: Cytotoxicity against PHGDH deficient human MDA-MB-231 cells assessed as reduction in cell viability after 5 days by presto blue assay. Format: functional, cell-based. The settings on record: MDA-MB-231, 120 h.
Experiment [2] deals with T2, D-3-phosphoglycerate dehydrogenase (Homo sapiens) (UniProt O43175).
T2 sequence (whole entry): T1 sequence (O43175 whole entry)
Description: Ratio of IC50 for inhibition of PHGDH in human HL60 cells assessed as reduction in cell viability in serine repleted medium to IC50 for inhibition of PHGDH in human HL60 cells assessed as reduction in cell viability in serine depleted medium. It is filed as cell-based.

Experiment [3] deals with T2, D-3-phosphoglycerate dehydrogenase (Homo sapiens). Put plainly: Ratio of IC50 for inhibition of PHGDH in human SiHa cells assessed as reduction in cell viability in serine repleted medium to IC50 for inhibition of PHGDH in human SiHa cells assessed as reduction in cell viability in serine depleted medium. Format: cell-based.
Another experiment relates to HL-60. Put plainly: Cytotoxicity against PHGDH knockout human HL60 cells assessed as reduction in cell viability after 5 days by presto blue assay. Format: functional, cell-based. As to conditions: HL-60, 120 h.
Experiment [4] concerns the target T2, D-3-phosphoglycerate dehydrogenase (Homo sapiens). Description: Inhibition of recombinant human C-terminal His-tagged PHGDH (1 to 533 residues) expressed in Escherichia coli assessed as reduction in NADH formation at 100 uM using 3-phosphoglycerate as substrate preincubated measured for 7 mins in presence of NAD+ by spectrophotometric method relative to control.

For experiment [5], the target named is T1, D-3-phosphoglycerate dehydrogenase. Description: Non-competitive inhibition of recombinant human C-terminal His-tagged PHGDH (1 to 533 residues) expressed in Escherichia coli assessed as reduction in NADH formation preincubated for 30 mins followed by constant concentration of 3-phosphoglycerate substrate addition in presence of varying levels of NAD+ by resorufin fluorescence based PSAT1/diaphorase/PSPH coupled enzyme assay.

Experiment [6] concerns the target T2, D-3-phosphoglycerate dehydrogenase (Homo sapiens). As to conditions: 160 uM.
Experiment [7] has as its target T1, D-3-phosphoglycerate dehydrogenase. Description: Non-competitive inhibition of recombinant human C-terminal His-tagged PHGDH (1 to 533 residues) expressed in Escherichia coli assessed as reduction in NADH formation preincubated for 30 mins followed by varying levels of 3-phosphoglycerate substrate addition in presence of constant NAD+ concentration by resorufin fluorescence based PSAT1/diaphorase/PSPH coupled enzyme assay.

For `O=C(C(=S)N1CCOCC1)c1ccccc1I`, the pIC50 in experiment [1] is below 3.70.
Consider `O=C(C(=S)N1CCOCC1)c1cccc(Br)c1`, for which, in experiment [1], the pIC50 was below 3.70.
With `O=C(C(=S)N1CCOCC1)c1ccc(Br)cc1`, the pIC50 is below 4.00 with MDA-MB-231, 3.88 in experiment [1] and below 4.00 in the experiment on HL-60. Also, the Ratio IC50 in experiment [2] is 2.2; in experiment [3], 2.6.
In the case of `O=C(C(=S)N1CCOCC1)c1ccc(Cl)cc1`, the values for the pIC50 (with MDA-MB-231; in experiment [1]; in the experiment on HL-60) were below 4.00, 5.06 and below 4.00, respectively. Moreover, the Ratio IC50 in [2] stood at 3.3; in [3], 3.2.
In the case of `O=C(C(=S)N1CCOCC1)c1cccc(I)c1`, the pIC50 in experiment [1] is below 3.70.
On to `O=C(C(=S)N1CCOCC1)c1ccc(-c2ccccc2)cc1`, for which the pIC50 in experiment [1] was below 3.70.
Take `c1ccc(C2CNCCO2)cc1` (configuration not stated): the inhibition in experiment [4] was found to be 61%.
`O=C(C(=S)N1CCOCC1)c1ccccc1Cl`: the pIC50 in the experiment on MDA-MB-231 is below 4.00; in [1] it was below 3.70; in the experiment with HL-60, below 4.00.
`O=C1C=CC(=O)c2ccccc21`: the inhibition in [4] was determined as 95%.
Turning to `O=C(N1CCN(c2ccccc2)CC1)n1nnc2ccccc21`, the inhibition in experiment [4] is 37%.
On to `O=C(C(=S)N1CCOCC1)c1cccc(Cl)c1`, for which the results for the pIC50 (with MDA-MB-231; in experiment [1]; in the experiment with HL-60) were below 4.00, below 3.70 and below 4.00, respectively.
In the case of `Nc1nc2c(s1)CCCC2`, the inhibition in [4] stood at 46%.
For `O=C(C(=S)N1CCOCC1)c1ccccc1F`, in experiment [1], the pIC50 was below 3.70.
For the compound `O=C(C(=S)N1CCOCC1)c1ccccc1Br`, the pIC50 in experiment [1] was 3.79.
On to `O=C(C(=S)N1CCOCC1)c1ccccc1`, for which the values for the pKi in experiment [5] and in [7] were 4.57 and 4.40, respectively. Moreover, the pIC50 in the experiment on MDA-MB-231 is below 4.00; in [1] it was 4.51; in the experiment on HL-60 it was below 4.00. For the same compound, the Ratio IC50 in experiment [3] turned out to be 9.1. Besides, the inhibition entry in [6] was “Active”.
In the case of `S=C(c1ccc(Cl)c(Cl)c1)N1CCOCC1` [(3,4-DICHLOROPHENYL)(MORPHOLINO)METHANETHIONE], the pIC50 in the experiment on MDA-MB-231 and with HL-60 was below 4.00 throughout. Besides, the inhibition in experiment [4] is 96%.
As to `CCCCCN1C(=O)NC(c2ccccc2)(c2ccccc2)C1=O`, in [4], the inhibition is 25%.
Take `O=C(Nc1ccccc1[N+](=O)[O-])c1ccc(Cl)cc1`: the pIC50 in the experiment on MDA-MB-231 is below 4.00; in experiment [1] it was 4.12; in the experiment with HL-60 it was below 4.00. For the same compound, the inhibition in [4] came to 59%.
With `Cc1cc(C)nc(NC(=O)c2ccc([N+](=O)[O-])cc2)n1`, in experiment [4], the inhibition came to 13%.
Still for that read-out and setting: in the case of `COc1ccc(S(=O)(=O)N2CCNCC2)cc1` it was 35%.
Regarding `O=C(C(=S)N1CCOCC1)c1ccc([N+](=O)[O-])cc1`, the pIC50 was below 4.00 in the experiment with MDA-MB-231, 4.45 in experiment [1] and below 4.00 in the experiment on HL-60. Further, the Ratio IC50 in [2] is 2.9; in experiment [3], 3.
Regarding `O=C(NC(c1ccccc1)c1ccccc1)c1ccc([N+](=O)[O-])cc1`, the inhibition in experiment [4] stood at 54%.
Take `O=C(C(=S)N1CCOCC1)c1ccccc1[N+](=O)[O-]`: the pIC50 in experiment [1] is below 3.70.
On to `FC(F)(F)c1cc(NC(=S)N2CCN(Cc3ccccc3)CC2)cc(C(F)(F)F)c1`, for which the inhibition in experiment [4] was 80%.
Consider `O=C(C(=S)N1CCOCC1)c1ccc(F)cc1`, for which the pIC50 in the experiment with MDA-MB-231 was below 4.00; in [1] it was 4.16; in the experiment on HL-60, below 4.00. The Ratio IC50 is 1.5 in [2] and above 2.3 in [3].
For `O=C(C(=S)N1CCOCC1)c1cccc(F)c1`, the pIC50 in experiment [1] was below 3.70.
With `S=C(NC1CCCCC1)Sc1ccccc1`, in [4], the inhibition stood at 51%.
As for `O=C1C=CC(=O)C=C1`, the inhibition in [4] was 100%.
Same read-out and setting: in the case of `O=C1C=CC(=O)N1c1ccccc1Cl` it was 78%.
In the case of `O=C(C(=S)N1CCOCC1)c1ccc(I)cc1`, the pIC50 with MDA-MB-231 was below 4.00; in experiment [1], 3.75; in the experiment on HL-60, below 4.00. Moreover, the Ratio IC50 in experiment [2] and in experiment [3] was 2.8 throughout.
`O=C(C(=S)N1CCOCC1)c1cccc([N+](=O)[O-])c1`: the negative-log IC50 (pIC50) in experiment [1] is 4.06.
Regarding `S=C(Nc1ccccc1)NC1CCCCC1`, the inhibition in experiment [4] turned out to be 28%.

Broadly, the pIC50 is −log10 of the IC50, conventionally taken in molar units. In general, inhibition refers to the change of the read-out against control, counted positive when it falls. The pKi is the Ki on a negative log10 scale, so that one unit is a factor of ten.
